Source: US20260294810A1, “IONIZABLE LIPID COMPOUND, LIPID CARRIER COMPRISING SAME, AND APPLICATION” (INNOVEC BIOTHERAPEUTICS, priority 2023, published 2026)

How the values were obtained:
[1] = Determination of particle size and polydispersity index of lipid nanoparticles (Malvern particle size analyzer); assay type: physicochemical
Description: (§1) In this example, the total lipid phase concentration of 1 mg/mL was formulated in anhydrous ethanol at the molar ratio of ionizable lipid (Compound 1, Compound 11 or Compound 12):helper lipid (DSPC or DOPE):cholesterol:DMG-PEG2000=50%:10%:38.5%:1.5%. Luc-eGFP mRNA at the corresponding concentration was dissolved in 50 mM citric acid buffer with an aqueous buffer solution of pH4.0. The mass ratio of mRNA to the total lipids was 1:30.
(§2) LNPs were prepared using the formulation-screening chip from Micro & Nano at a total flow rate of 12 ml/min and a flow rate ratio of 1:3 between the lipid phase and the aqueous phase. The lipid nanoparticles were collected and dialyzed with PBS overnight at 4° C. to remove ethanol and acidic buffer salts. The dialysate volume was 400 times or more the sample volume. The dialyzed sample was filtered through a 0.2-μm filter membrane. Lipid nanoparticles could also be prepared by other methods, such as injection mixing, in addition to using microfluidic chips. After being dialyzed and filtered, the sample was concentrated using a 10 kDa cellulose ultrafiltration membrane. The centrifugation parameter was 1000 g to 2000 g, and the centrifugation time was 30 min to 1 hour. The centrifugation temperature was 4° C.
2. Determination of particle size: The particle size and polydispersity index (PDI) of the prepared lipid nanoparticles were measured using a Malvern particle size analyzer.
(§3) The nucleic acid delivery efficiency of lipid nanoparticles was characterized by observing the fluorescence expression in mice. The lipid nanoparticles were prepared at a molar ratio of ionizable lipid (Compound 17, Compound 15, Compound 18, Compound 2 or MC3):DSPC:cholesterol:DSPE-PEG2000=50%:10%:39.5%:0.5%. Female C57/BL6 mice weighing 18 to 22 g were selected. After acclimation, the Luc-eGFP mRNA-encapsulated lipid nanoparticles were injected subretinally into mice (both eyes) at a dose of 0.9 μg (±10%) mRNA (1 μl, in a sterile PBS solution) per eye. In order to observe the expression of luciferase, the luciferase substrate was dissolved into a sterile PBS solution and prepared into a solution at a concentration of 30 mg/ml.

Luc-eGFP mRNA = assay: Determination of encapsulation efficiency of mRNAs (Quant-iT RiboGreen RNA kit); assay type: physicochemical
Description: as §1, §2
For mRNA-encapsulated lipid nanoparticles, the assay specified in the Quant-iT™ RiboGreen® RNA kit could be employed. The specific operations were as follows: The sample was diluted 10 to 20 folds with a TE buffer solution (10 mM Tris-HCl, 1 mM EDTA, pH 7.5). An equal volume of demulsifier (2% Triton X-100) was added to the sample to be tested and then the solution was diluted 10 to 20 folds again. The RiboGreen® reagent was diluted 100 folds in the TE buffer solution, and 100 μl of the diluted solution was added to a 96-well plate. 100 μl of the sample to be tested was added to the corresponding 96-well plate. Meanwhile, a standard curve was plotted using the mRNA standard. The fluorescence value at 520 nm excited by 480 nm excitation light was read using a microplate reader. The concentrations of the encapsulated and free mRNAs were calculated based on the standard curve.
as §3

luciferase [2] = assay: In vivo delivery of luciferase mRNA in animals, tail vein injection, chemiluminescence imaging; parameters: species or system Female C57/BL6 mice; conditions: Luc-eGFP mRNA 0.5 mg/kg, mice, 6 h after injection
Description: as §1
The nucleic acid delivery efficiency of lipid nanoparticles was characterized by observing the fluorescence expression in mice. The Luc-eGFP mRNA-encapsulated lipid nanoparticles prepared in Example 9 were injected at a certain dose into mice via the tail vein. Female C57/BL6 mice weighing 18 to 22 g were randomly grouped, with two mice in each group. After acclimation, Luc-eGFP mRNA-encapsulated LNPs (in a sterile PBS solution) were injected via the tail vein at a dose of 0.5 mg/kg (0.5 mg here referring to the dose of mRNA). In order to observe the expression of luciferase, the luciferase substrate was dissolved into a sterile PBS solution and prepared into a solution at a concentration of 30 mg/ml.
Six hours after injection of LNPs, 150 ul of luciferase substrate solution was injected intraperitoneally into each mouse. The mice were allowed to stand for 5 min, and then anesthetized for 3 min in a carbon dioxide box. After anesthesia, the mice were put in a small animal in vivo imager for imaging.

luciferase [3] = assay: Subretinal injection in mice, chemiluminescence from Luc-eGFP mRNA delivered by lipid nanoparticles; assay type: in vivo, Female C57/BL6 mice; conditions: LNP ionizable lipid:DSPC:cholesterol:DSPE-PEG2000 = 50:10:39.5:0.5, both eyes, 0.9 μg (±10%) mRNA per eye
Description: as §3
Imaging in mice: 18 hours after drug administration, 150 μl of luciferase substrate solution was injected intraperitoneally into each mouse. The mice were allowed to stand for 5 min, and then anesthetized for 3 min in a carbon dioxide box. After anesthesia, the mice were put in a small animal in vivo imager for imaging.

[4] = LNP with helper lipid DOPE, ionizable lipid:helper lipid:cholesterol:DMG-PEG2000 = 50:10:38.5:1.5, Luc-eGFP mRNA:total lipids 1:30
[5] = LNP with helper lipid DSPC, ionizable lipid:helper lipid:cholesterol:DMG-PEG2000 = 50:10:38.5:1.5, Luc-eGFP mRNA:total lipids 1:30
[6] = LNP ionizable lipid:DSPC:cholesterol:DSPE-PEG2000 = 50:10:39.5:0.5, Luc-eGFP mRNA

SMILES	PDI [1, 4]	Particle Size [1, 4] [nm]	PDI [1, 5]	Particle Size [1, 5] [nm]	Nucleic Acid Encapsulation Efficiency (Luc-eGFP mRNA; [4]) [%]	Nucleic Acid Encapsulation Efficiency (Luc-eGFP mRNA; [5]) [%]	Luminous Intensity 6 h (luciferase [2]; LNP with helper lipid DOPE) [p/s/cm^2/sr]	Luminous Intensity 6 h (luciferase [2]; LNP with helper lipid DSPC) [p/s/cm^2/sr]	PDI [1, 6]	Particle Size [1, 6] [nm]	Nucleic Acid Encapsulation Efficiency (Luc-eGFP mRNA; [6]) [%]	Luminous Intensity 18 h (luciferase [3]) [p/s/cm^2/sr]
CCCCCCCCC(CCCCCC)C(=O)OCCCCCCN(CCCCCCOC(=O)C(CCCCCC)CCCCCCCC)CCOC(=O)NCCN(CC)CC (stereo not shown) [Compound 1]	0.082	99.86	0.135	111.7	95.42	93.01	1.6E+9	3.4E+8	–	–	–	–
CCCCCCCCC(CCCCCC)C(=O)OCCCCCCN(CCCCCCOC(=O)C(CCCCCC)CCCCCCCC)CCOC(=O)NCCN(C)CC (stereo not shown) [Compound 2]	–	–	–	–	–	–	–	–	0.19	147.2	99.3	2E+8
CCCCCCCCC(C)C(=O)OCCCCCCN(CCCCCCOC(=O)C(CCCCCC)CCCCCCCC)CCOC(=O)NCCN(CC)CC (stereo not shown) [Compound 11]	–	–	0.215	96.88	–	97.13	–	7.2E+7	–	–	–	–
CCCCCCCCC(CCCC)C(=O)OCCCCCCN(CCCCCCOC(=O)C(CCCCCC)CCCCCCCC)CCOC(=O)NCCN(CC)CC (stereo not shown) [Compound 12]	–	–	0.22	123	–	97.58	–	3.1E+8	–	–	–	–
CCCCCCCCCOC(=O)CCCCCCCN(CCCCCCCC(=O)OC(CCCCCCCC)CCCCCCCC)CCOC(=O)NCCN(C)CC [Compound 15]	–	–	–	–	–	–	–	–	0.22	149.7	98.2	2.6E+7
CCCCCCCCCOC(=O)CCCCCCCN(CCCCCCCC(=O)OC(CCCCCCCC)CCCCCCCC)CCOC(=O)NCCCN(C)C [Compound 17]	–	–	–	–	–	–	–	–	0.36	90.31	99.4	3.4E+8
CCCCCCCCCOC(=O)CCCCCCCN(CCCCCCCC(=O)OC(CCCCCCCC)CCCCCCCC)CCOC(=O)NCCN(CC)CC [Compound 18]	–	–	–	–	–	–	–	–	0.14	121.7	96.0	1E+7
CCCCC/C=C\C/C=C\CCCCCCCCC(CCCCCCCC/C=C\C/C=C\CCCCC)OC(=O)CCCN(C)C [MC3, DLin-MC3-DMA, reference compound]	–	–	–	–	–	–	–	1.35E+8	0.24	149.0	96.6	5E+6
